# Assay results: patent publication US12617779B2, “Self degradation-type CDK9 inhibitor prodrug and liposome encapsulating same” (Sumitomo Pharma Co., Ltd., priority 2021, dated 2026)
# Assays:
# [1] = Liposome encapsulation test, remote loading method (Experimental Example 4); type: physicochemical; settings: for encapsulation rate, encapsulation efficiency and encapsulated compound content per 50 μmol of lipid: remote loading into liposomes;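 on encapsulation efficiency: encapsulated compound as percent of compound amount introduced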
# Experimental: For Example 1, Example 2, Example 3, Example 4, Example 5, Example 6, Example 7, Example 8, Example 9, Example 10, Example 11, Example 12, Example 13, Example 14, Example 15, Example 16, Example 17 and Alvocidib, an encapsulation test in liposomes was performed using a remote loading method.
# <Liposome Encapsulation Test of Example 1, Example 2, Example 5, Example 6, Example 9, Example 10, Example 11, Example 12, Example 13, Example 14, Example 15, and Example 16>
# (§1) Hydrogenated soybean phosphatidylcholine (COATSOME NC-21E, manufactured by NOF CORPORATION, 7.77 g), cholesterol (manufactured by Sigma, 2.78 g) and distearoylphosphatidylethanolamine-methoxypolyethylene glycol 2000 (SUNBRIGHT DSPE-020CN, manufactured by NOF CORPORATION, 2.47 g) were dissolved in tert-butyl alcohol (720 mL) warmed to 65° C. The solution was placed in an eggplant flask and frozen in a dry ice-acetone bath, and then the tert-butyl alcohol was removed by evaporation under reduced pressure to give a lipid mixture.
# To the above lipid mixture was added a 250 mM ammonium sulfate solution (240 mL), and the mixture was warmed to 65° C., and dispersed by a homogenizer (ULTRA-TURRAX, manufactured by IKA) to give a crude liposome dispersion. Then, the crude liposome dispersion was dispersed by a high pressure homogenizer (Nano-Mizer NM2, manufactured by YOSHIDA KIKAI CO., LTD.) at a pressure of 100 MPa to give liposomes with an average particle size (Z-average) of about 80 nm. The liposome outer solution was replaced with 10 mM L-histidine/10% sucrose solution (pH 6.5) using a dialysis cassette (Slide-A-Lyzer G2 Dialysis Cassettes 20K MWCO, manufactured by Thermo Scientific) to give an empty liposome solution. The solution was filtered through a 0.22 μm membrane filter, and a 10 mM L-histidine/10% sucrose solution (pH 6.5) was added thereto to adjust the total lipid concentration to 50 mM (50 μmol/mL). The lipid concentration was determined by quantitatively analyzing cholesterol using HPLC and calculating the total lipid concentration from the lipid mixing ratio. The amount for the above adjustment was increased or decreased as appropriate.
# The compound (10 mg) was weighed, and the empty liposome solution (1 mL) with a total lipid concentration of 50 mM was added thereto. The solution was adjusted to pH 5 to 6 with 1 mol/L hydrochloric acid or 1 mol/L aqueous sodium hydroxide solution as necessary, warmed in a 65° C. water bath for 2 to 3 minutes, and ice-cooled. The mixture was centrifuged at 15,000×g for 5 minutes to precipitate and remove insoluble substances.
# The liposome solution (100 μL) after removing insoluble substances was taken on an ultrafiltration filter (Amicon Ultra, 100K, 0.5 mL, manufactured by Merck) and centrifuged at 4° C., 15,000×g for 10 minutes. The compound concentrations in the liposome solution after removing insoluble substances and in the filtrate after ultrafiltration were determined by HPLC, and the encapsulation rate, encapsulation efficiency, and encapsulated compound content per 50 μmol of lipid were calculated by the following formula.
# The measurement conditions for HPLC are as follows.
# An empty liposome solution with a total lipid concentration of 75 mM was prepared by the same procedure as for the above example compound group. Each compound was weighed, and the empty liposome solution with a total lipid concentration of 75 mM was added thereto such that the compound concentration became 15 mg/mL. The solution was adjusted to pH 5 to 6 with 1 mol/L hydrochloric acid or 1 mol/L aqueous sodium hydroxide solution, warmed in a 65° C. water bath for 3 minutes, and ice-cooled. Hereafter, the encapsulation rate and encapsulation efficiency were calculated by the same procedure as for the above example compound group. The encapsulated compound content per 50 μmol of lipid was calculated by the following formula.
# [formula] <Liposome Encapsulation Test of Example 7, Example 8 and Example 17> […]
# [2] = Pharmacokinetic test, intravenous solution and liposome formulations in mice (Experimental Example 6); type: in vivo; settings: female BALB/c mice
# Experimental: This was used as a solution formulation.
# This was used as a liposome formulation.
# as §1, with “3.238” for “7.77”, “1.160” for “2.78”, “1,2-disteroyl-rac-glycero-3-methylpolyoxyethylen” for “distearoylphosphatidylethanolamine-methoxypolyethylene glycol”, “GS-020,” for “DSPE-020CN,”, “0.983” for “2.47”, “(300” for “(720”
# To the above lipid mixture was added to a 250 mM ammonium sulfate solution (100 mL), and the mixture was warmed to 65° C., and dispersed by a homogenizer (ULTRA-TURRAX, manufactured by IKA) to give a crude liposome dispersion. […] The solution was filtered through a 0.22 μm membrane filter to adjust the total lipid concentration to 75 mM (75 μmol/mL). […] The solution was adjusted to pH 5 to 6 with 1 mol/L aqueous sodium hydroxide solution, warmed in a 65° C. water bath for 3 minutes, and ice-cooled. The liposome outer solution was replaced with 10 mM tartrate buffer solution/10% sucrose solution (pH 4) using a dialysis cassette (Slide-A-Lyzer G2 Dialysis Cassettes 20K MWCO, manufactured by Thermo Scientific), followed by filtration through a 0.22 μm membrane filter to adjust the concentration.
# The solution formulation or liposome formulation was instantly administered intravenously to 7-week-old female BALB/c mice, and the blood was collected over time from the jugular vein without anesthesia up to 24 hours after administration for the solution formulation administration group and up to 72 hours after administration for the liposome formulation administration group. […] The plasma sample was centrifuged, and the concentrations of the test compound and Alvocidib in the obtained supernatant were determined by LC-MS/MS.
# [3] = Compound concentration when encapsulated 10 mg/mL
# [4] = Compound concentration when encapsulated 15 mg/mL
SMILES,"Encapsulated compound content per 50 μmol of lipid [1, 3] [mg]","Encapsulation efficiency [1, 3] [%]","Encapsulation rate [1, 3] [%]","encapsulation rate, encapsulation efficiency and encapsulated compound content per 50 μmol of lipid [1]",Blood retention of liposome formulation compared with the corresponding solution formulation [2],"Encapsulated compound content per 50 μmol of lipid [1, 4] [mg]","Encapsulation efficiency [1, 4] [%]","Encapsulation rate [1, 4] [%]"
"CCN(C[C@@H]1CCCCN1)C(=O)Oc1cc(O)c2c(=O)cc(-c3ccccc3Cl)oc2c1[C@H]1CCN(C)C[C@H]1O [Example 1, 2-(2-chlorophenyl)-5-hydroxy-8-[(3S,4R)-3-hydroxy-1-methylpiperidin-4-yl]-4-oxo-4H-1-benzopyran-7-yl ethyl{[(2S)-piperidin-2-yl]methyl}carbamate ditrifluoroacetate]",7.3,73.2,82.9,high,higher blood retention,–,–,–
"CN1CC[C@H](c2c(OC(=O)N(C)C[C@@H]3CCCCN3)cc(O)c3c(=O)cc(-c4ccccc4Cl)oc23)[C@H](O)C1 [Example 3, 2-(2-chlorophenyl)-5-hydroxy-8-[(3S,4R)-3-hydroxy-1-methylpiperidin-4-yl]-4-oxo-4H-1-benzopyran-7-yl methyl{[(2S)-piperidin-2-yl]methyl}carbamate]",–,–,–,high,higher blood retention,6.0,60.2,61.0
"CN1CC[C@H](c2c(OC(=O)N(CCF)CC3CCCCN3)cc(O)c3c(=O)cc(-c4ccccc4Cl)oc23)[C@H](O)C1 (stereo partly drawn) [Example 11, 2-(2-chlorophenyl)-5-hydroxy-8-[(3S,4R)-3-hydroxy-1-methylpiperidin-4-yl]-4-oxo-4H-1-benzopyran-7-yl (2-fluoroethyl) [(piperidin-2-yl)methyl]carbamate]",4.6,46.1,45.5,–,higher blood retention,–,–,–
"CN1CC[C@H](c2c(OC(=O)N(C)C[C@H]3CCCCN3)cc(O)c3c(=O)cc(-c4ccccc4Cl)oc23)[C@H](O)C1 [Example 4, 2-(2-chlorophenyl)-5-hydroxy-8-[(3S,4R)-3-hydroxy-1-methylpiperidin-4-yl]-4-oxo-4H-1-benzopyran-7-yl methyl{[(2R)-piperidin-2-yl]methyl}carbamate]",–,–,–,high,higher blood retention,7.1,71.2,72.2
"CCCN(C[C@H]1CCCCN1)C(=O)Oc1cc(O)c2c(=O)cc(-c3ccccc3Cl)oc2c1[C@H]1CCN(C)C[C@H]1O [Example 6, 2-(2-chlorophenyl)-5-hydroxy-8-[(3S,4R)-3-hydroxy-1-methylpiperidin-4-yl]-4-oxo-4H-1-benzopyran-7-yl {[(2R)-piperidin-2-yl]methyl}propylcarbamate]",6.6,65.9,73.8,high,higher blood retention,–,–,–
